The subject of data set [1] is P. aeruginosa (ATCC 27853) biofilms. The experiment in a line: Inhibition of biofilm formation (crystal violet staining). It counts as cell-based, Pseudomonas aeruginosa. The method, then: During the development of embodiments of the technology provided herein, experiments were conducted to determine the minimum concentration of Ga (e.g., as Ga(NO3)3) to inhibit biofilm formation. In particular, Ga was added to cultures of Pseudomonas aeruginosa in biofilm growth media (500 μL of 1% tryptic soy broth (TSB)) to test the inhibition of biofilm formation at the bottom of 48-well tissue culture plates.
Biofilm growth arising from suspensions of 10^6 CFU/ml P. aeruginosa (ATCC 27853) was quantified after 24, 48, and 72 hours by staining biofilms with crystal violet, following methods described previously (Brandenburg et al. Tryptophan Inhibits Biofilm Formation by Pseudomonas aeruginosa. Antimicrobial Agents and Chemotherapy. 2013; 57:1921-5).

In a further data set the test system is established biofilms. The following applies: in TSB; cited from earlier work.
In another data set the test system is mammalian cells. The following applies: cited from earlier work.
For another data set, the system named is incisional wounds. The following applies: in vivo; cited from earlier work.

This is an account of results in patent US20150283287A1, “METHODS AND COMPOSITIONS FOR WOUND HEALING” (IMBED BIOSCIENCES, INC., priority 2012, published 2015).

For `O=[N+]([O-])[O-].O=[N+]([O-])[O-].O=[N+]([O-])[O-].[Ga+3]` [Ga^3+, Ga(NO3)3], the “Effect on free (planktonic) bacterial counts” value in data set [1] (25 μM) is given as “not bactericidal”. Further, the “Concentration in solution sufficient to completely inhibit biofilm formation” value in data set [1] (72 hours, 10^6 CFU/ml in 1% TSB) turned out to be 25 µM. Further, the “Concentration that disperses established biofilms” value in the data set with established biofilms is 100 µM. The “Concentrations not cytotoxic to mammalian cells” value in the data set with mammalian cells is “up to 1 mM”.

On to `CC1=C(/C=C/C(C)=C/C=C/C(C)=C/C(=O)O)C(C)(C)CCC1` [tretinoin], for which, in the data set on incisional wounds, the Fibroblastic proliferation result was “increased” and the Production of collagen result was “diminished”.
